Assay results: PMC9610647, “Acetylcholinesterase Inhibitory Activities of Essential Oils from Vietnamese Traditional Medicinal Plants” (Molecules, 2022)

Legend:
[1] = tested on: AChE from Electrophorus electricus (electric eel); settings: cited from earlier work
[2] = tested on: AChE of bovine erythrocytes; settings: cited from earlier work
electric eel AChE = biological target: T1, electric eel AChE (Electrophorus electricus, UniProt O42275); assay: Acetylcholinesterase (AChE) inhibition assay, Ellman method; format: biochemical; settings: for inhibition at 4 µg/mL: read-out: Acetylcholinesterase inhibitory activity at 4 µg/mL; for inhibition at 20 µg/mL: read-out: Acetylcholinesterase inhibitory activity at 20 µg/mL; for inhibition at 100 µg/mL: read-out: Acetylcholinesterase inhibitory activity at 100 µg/mL; for inhibition at 500 µg/mL: read-out: Acetylcholinesterase inhibitory activity at 500 µg/mL
T1 construct: purchased Sigma-Aldrich
Method: Acetylcholinesterase (AChE) inhibitory activity of essential oil was determined according to the method described by Ellman and our previous study. The stock solution was obtained by dissolving the essential oil in DMSO (Merck), which was then diluted with H2O (deionized distilled water) to obtain different experimental concentrations. Each solution mixture consisted of 140 μL of phosphate buffer solution (pH: 8), 20 μL of essential oil at concentrations of 500, 100, 20, and 4 μg/mL, and 20 μL of the enzyme AChE (0.25 IU/mL, Sigma-Aldrich, St. Louis, MO, USA). The reaction mixtures were transferred to the test wells of a 96-well microtiter plate and incubated at 25 °C for 15 min. Then, solutions of 10 μL dithiobisnitrobenzoic acid (DTNB, 2.5 mM, Sigma-Aldrich) and 10 μL acetylthiocholine iodide (ACTI, 2.5 mM, Sigma-Aldrich) were added to each of the test wells and incubation continued for 10 min at 25 °C. […] Each test was carried out in triplicate.

[3] = tested on: AChE from human erythrocytes; settings: cited from earlier work
AChE = settings: cited from earlier work
[4] = IC50 (μM), IC50 ± standard deviation
[5] = IC50, IC50 ± standard deviation

T1 sequence (O42275 24-633): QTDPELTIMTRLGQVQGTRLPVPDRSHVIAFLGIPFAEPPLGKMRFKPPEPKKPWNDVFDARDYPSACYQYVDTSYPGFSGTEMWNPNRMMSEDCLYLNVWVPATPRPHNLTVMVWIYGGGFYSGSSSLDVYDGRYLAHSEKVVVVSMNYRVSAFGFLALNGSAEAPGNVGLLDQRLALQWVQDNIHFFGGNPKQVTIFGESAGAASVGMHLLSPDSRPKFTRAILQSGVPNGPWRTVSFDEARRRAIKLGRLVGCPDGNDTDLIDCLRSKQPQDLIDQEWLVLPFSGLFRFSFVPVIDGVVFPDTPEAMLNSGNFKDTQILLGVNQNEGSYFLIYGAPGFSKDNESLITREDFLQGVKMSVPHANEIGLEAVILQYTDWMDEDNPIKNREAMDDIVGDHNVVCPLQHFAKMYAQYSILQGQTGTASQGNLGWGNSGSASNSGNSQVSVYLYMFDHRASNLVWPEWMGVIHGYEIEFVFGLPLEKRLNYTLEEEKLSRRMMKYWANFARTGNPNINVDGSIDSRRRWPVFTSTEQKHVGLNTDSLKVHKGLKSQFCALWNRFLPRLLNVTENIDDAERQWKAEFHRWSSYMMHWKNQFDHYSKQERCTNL

Compound | IC50 (electric eel AChE; [4]) [µM] | IC50 (electric eel AChE; [5]) [µM] | inhibition at 4 µg/mL (electric eel AChE) [%] | inhibition at 20 µg/mL (electric eel AChE) [%] | inhibition at 100 µg/mL (electric eel AChE) [%] | inhibition at 500 µg/mL (electric eel AChE) [%] | IC50 (AChE) [µM] | other results
CC12CCC(CC1)C(C)(C)O2 [1,8-Cineole, reference compound] |  |  |  |  |  |  |  | IC50 [1]: 6 µM; IC50 [2]: 390 ± 60 µM
C=C1CCC=C(C)CCC2C1CC2(C)C (stereo not drawn) [(E)-β-Caryophyllene] | 436 ± 29.9 | 436 | 6.09 | 26.3 | 52.9 | 79 |  | inhibition of AChE ([1]; concentration 0.06 mM): 32%; IC50 [3]: 147 ± 15 µM
C=C1CC[C@H]2O[C@]2(C)CC[C@@H]2[C@@H]1CC2(C)C [Caryophyllene Oxide] | 1450 ± 61 | 1450 | -2.11 | 0.49 | 16.9 | 74 |  | AChE inhibition ([1]; 200 µg/mL): 41.46 ± 2.66%; AChE inhibition ([2]; 250 µg/mL): 35 ± 4.7%
C=C(C)C1CC=C(C)CC1 (stereo not drawn) [Limonene] | 390 ± 30 | 390 | 18.2 | 27 | 67.7 | 90.8 |  | 
CC1(C)C2CC=C(C=O)C1C2 (stereo not drawn) [Myrtenal] |  |  |  |  |  |  | 170 | 
C=C1CCC2(C(C)C)CC12 (stereo not drawn) [Sabinene] |  |  |  |  |  |  | 1300 ± 21 | 
C=C(C)C1CC=C(C)C(O)C1 (stereo not drawn) [trans-Carveol] | 676 | 676 | 1.19 | 16.8 | 55.3 | 76.9 |  | 
CC1=CCCC(C)=CCC(C)(C)C=CC1 [α-Humulene] | 785 ± 66 | 785 | 19.4 | 25.1 | 44.3 | 72.8 |  | 
CC1=CCC2CC1C2(C)C (stereo not drawn) [α-Pinene, reference compound] |  |  |  |  |  |  |  | IC50 [2]: 660 ± 40 µM
CC1=CC=C(C(C)C)CC1 [α-terpinene] |  |  |  |  |  |  | 1000 | 
CC1=CC[C@@H](C(C)(C)O)CC1 [α-terpineol] |  |  |  |  |  |  | 8400 ± 400 | 
C=C1CCC2CC1C2(C)C (stereo not drawn) [β-Pinene] | 525 ± 42.4 | 524 | 20.9 | 28.9 | 58.9 | 86.5 |  | IC50 [2]: ~1500 µM
